Data from patent USRE29244E, “Coccidiostats” (priority 1976, dated 1977).
Where a name gives a salt, the structure may show the parent alone. Read-outs that look alike come from different tables or passages of the source.

Tests used:
[1] = Acute oral toxicity in broiler chicks; conditions: chicken, in vivo; oral single dose, 9- or 8-day-old chicks; limits given as 59 ±3 mg. and 84 ±7 mg.
[2] = system: Eimeria tenella; test: Eimeria tenella infection in laboratory chickens; type: in vivo; set-up: Average degree of infection: scale not given here; conditions: for Weight gain: uninfected control 100
Description: (A) Eimeria tanella infection in laboratory chickens
(§1) Test method.--This test utilizes ten chickens per drug group. Ten chickens are employed as a weight control and ten chickens as an infected control. The drug is given 48 hours in advance of the infection. One gm. of the test drug is mixed in a mechanical mixer with a sufficient amount of chicken feed to result in the desired dosage. The infection consists of approximately 200,000 oocysts given orally by pipette. The tests lasts for eleven days and then the surviving birds are autopsied and examined for gross lesions in the ceca. The test birds are rated according to the number of survivors and the number of cecal lesions. The results are expressed as average degree of infection (A.D.I.). An average degree of infection of less than 2.5 is considered significant.

[3] = system: Bacillus E; test: Antimicrobial spectrum, plate assay; type: cell-based
Description: (§2) The following table summarizes the antimicrobial spectrum of antibiotic X-537A:
(§3) Antimicrobial spectrum of antibiotic X-537A
(§4) Test organism: Plate units per mg.
(§5) The antibiotic can be prepared by growing the Streptomyces organisms in an aerated submerged culture. This can be done in either a shaken flask or in 50-1,000 gallon stainless steel and iron fermentation tanks. The broths are adjusted to a pH which is about neutral, i.e., 6.5-7.5 prior to be sterilized and are then incubated at slightly elevated temperatures, e.g., about 27° to 30° C., after being inoculated with spore suspensions or vegetative growth. The reaction broth is then filtered and the active material is extracted with a suitable solvent, preferably methanol, n-butanol or butyl acetate. The antibiotic activity is followed by cup-plate agar diffusion assay in which the test organism Bacillus E is employed. In general, the concentration of antibiotic required to produce an inhibition zone of 20-22 mm. in diameter with any of the test organisms is considered to be 1 unit per ml. Whole broths are diluted for assay in 1% phosphate buffer, pH 6.0.

[4] = system: Bacillus cereus; test: Antimicrobial spectrum, plate assay; type: cell-based
Description: as §2, §3, §4, §5

[5] = system: Bacillus mesentericus; test: Antimicrobial spectrum, plate assay; type: cell-based
Description: as §2, §3, §4, §5

[6] = system: Bacillus simplex; test: Antimicrobial spectrum, plate assay; type: cell-based
Description: as §2, §3, §4, §5

[7] = system: Corynebacterium simplex; test: Antimicrobial spectrum, plate assay; type: cell-based
Description: as §2, §3, §4, §5

[8] = system: Mycobacterium phlei; test: Antimicrobial spectrum, plate assay; type: cell-based
Description: as §2, §3, §4, §5

[9] = system: Saccharomyces cerevisiac; test: Antimicrobial spectrum, plate assay; type: cell-based
Description: as §2, §3, §4, §5

[10] = system: Sarcina lutea; test: Antimicrobial spectrum, plate assay; type: cell-based
Description: as §2, §3, §4, §5

[11] = system: Scopulariopsis brevicaulis; test: Antimicrobial spectrum, plate assay; type: cell-based
Description: as §2, §3, §4, §5

[12] = system: Staphylococcus aureus; test: Antimicrobial spectrum, plate assay; type: cell-based
Description: as §2, §3, §4, §5

[13] = system: Gram-negatives; test: Antimicrobial spectrum, plate assay; type: cell-based; conditions: Gram-negatives: Pseudomonas acruginosa, Aerobacillus polymyxa, Escherichia coli
Text: as §2, §3, §4
*These were Pseudomonas acruginosa, Aerobacillus polymyxa and Escherichia
as §5

[14] = system: gram-positive bacteria; test: In vitro antibacterial activity; type: cell-based
[15] = system: mycobacteria; test: In vitro antibacterial activity; type: cell-based
[16] = system: gram-negative bacteria; test: In vitro antibacterial activity; type: cell-based
[17] = Toxic dosage in mice; type: in vivo; conditions: for MTD: mouse, in vivo, read-out: Tolerated dose
Text: The toxic dosage of the antibiotic as tested in mice and designated as the lethal dose is as follows: […]

[18] = Continuous feeding of chicks for nine weeks; type: in vivo, chicken
Text: At 0.025%, growth is reduced, feed conversion impaired and 25% mortality occurs.

[19] = system: mixtures of E. tenella, E. necatrix, E. acervulina, E. brunetti, E. maxima, E. mivati; test: Multiple Eimeria infections in chickens; type: in vivo, Eimeria (mixture; in chickens); conditions: for Average degree of infection: <2.5 significant; for Weight gain: uninfected control 100
Description: as §1
(B) Multiple Eimeria infections in chickens
Test method.--The test method is the same as for Eimeria tenella. The multiple Eimeria infections tested herein are mixtures of E. tenella, E. necatrix, E. acervulina, E. brunetti, E. maxima, E. mivati infections.

[20] = system: coccidiosis; test: Control of coccidiosis by medicated feed (general statements); type: in vivo, poultry (turkeys, chickens)
Text: Thus, the compositions of this invention not only control coccidiosis, but also, aid in improving the efficiency of conversion of feed to weight gains.
Thus, for example, a feed premix or complete feed contains sufficient active ingredient to provide from about 0.001% to about 0.0125% by weight of the daily feed consumption. Preferably, about 0.00312% to 0.00625% by weight is used. Generally, about 0.005% to about 0.006% of the active ingredient is sufficient for the purpose of controlling and combating coccidiosis.
Even though amounts over 0.00625% are efficacious for combating coccidiosis, this amount is the preferred upper range because of economics, i.e., the cost per unit of effectiveness is lowest within this range. Amounts lower than 0.001% and in some cases lower than 0.003% are not effective for combating coccidiosis. Preferred is a lower limit of 0.00312% because this insures efficaciousness. The most preferred amount, i.e., about 0.005% to about 0.006% by weight of the poultry daily feed consumption is particularly efficacious since it achieves maximum effect with minimum dose. The range of the weight amounts of active antibiotic in the dried unfiltered broth solids which are efficacious for combating coccidiosis is the same as for the crystalline material or its salts. For example, when administered in feed to chicks so as to contain a dosage of 0.003% of active ingredient, the crude dried unfiltered broth results in an average degree of infection of 1.4 while at the same dosage, the sodium salt of the crystalline antibiotic results in an average degree of infection of 1.7. At a dosage equivalent to a concentration of active ingredient of 0.006%, the dried material results in an average degree of infection of 0.0 while the sodium salt of the crystalline antibiotic results in an average degree of infection of 0.2.

## CCC(C(=O)C(C)C(O)C(C)CCc1ccc(C)c(O)c1C(=O)O)C1OC(CC)(C2CCC(O)(CC)C(C)O2)CC1C (centres unmarked) [sodium salt of antibiotic X-537A]
[1]
  LD50: 59 to 84 mg/kg
[2]; text: 0.003% of active ingredient in feed to chicks
  Average degree of infection: 1.7
[2]; text: 0.006% of active ingredient in feed to chicks
  Average degree of infection: 0.2

## CCC(C(=O)C(C)C(O)C(C)CCc1ccc(C)c(O)c1C(=O)O)C1OC(CC)(C2CCC(O)(CC)C(C)O2)CC1C (centres unmarked) [antibiotic X-537A]
[3]; Bacillus E
  Antimicrobial activity: 800 Plate units per mg.
[3]; crystalline material from petroleum ether (contained sodium)
  Bacillus E assay: 500 E units per mg.
[3]; free acid recrystallized from ethanol
  Bacillus E assay: 800 E units per mg.
[4]
  Antimicrobial activity: 120 Plate units per mg.
[5]
  Antimicrobial activity: 50 Plate units per mg.
[6]
  Antimicrobial activity: 20 Plate units per mg.
[7]
  Antimicrobial activity: 20 Plate units per mg.
[8]
  Antimicrobial activity: 20 Plate units per mg.
[9]
  Antimicrobial activity: 0 Plate units per mg.
[10]
  Antimicrobial activity: 500 Plate units per mg.
[11]
  Antimicrobial activity: 0 Plate units per mg.
[12]
  Antimicrobial activity: 20 Plate units per mg.
[13]
  Antimicrobial activity: 0 Plate units per mg.
[14]
  Activity in vitro against gram-positive bacteria: active
[15]
  Activity in vitro against mycobacteria: active
[16]
  Activity in vitro against gram-negative bacteria: inactive
[17]; intraperitoneal
  Lethal dose: 62.5 mg/kg
[17]; ip, intraperitoneal
  MTD: 50 mg/kg
[17]; oral
  MTD: 62.5 mg/kg
  Lethal dose: 125 mg/kg
[17]; sc, subcutaneous
  MTD: 62.5 mg/kg
[17]; subcutaneous
  Lethal dose: 125 mg/kg
[18]; 0.025% in feed
  Feed conversion: impaired
  Growth: reduced
[18]; chicken, in vivo, po, 0.025% in feed
  mortality at 1512 h: 25%
[18]; up to 0.0125% by weight in feed, nine weeks
  Adverse effects on performance (growth, feed efficiency and mortality): no adverse effects
[2]; Test I, 0.00312% in feed
  Percent mortality: 0%
  Weight gain: 85%
[2]; Test I, 0.00312% in feed, <2.5 significant
  Average degree of infection: 2.2
[2]; Test I, 0.00625% in feed
  Percent mortality: 0%
  Weight gain: 92%
[2]; Test I, 0.00625% in feed, <2.5 significant
  Average degree of infection: 0.4
[2]; Test II, 0.001% in feed
  Percent mortality: 15%
  Weight gain: 80%
[2]; Test II, 0.001% in feed, <2.5 significant
  Average degree of infection: 2.8
[2]; Test II, 0.002% in feed
  Percent mortality: 15%
  Weight gain: 83%
[2]; Test II, 0.002% in feed, <2.5 significant
  Average degree of infection: 2.6
[2]; Test II, 0.003% in feed
  Percent mortality: 5%
  Weight gain: 85%
[2]; Test II, 0.003% in feed, <2.5 significant
  Average degree of infection: 2.2
[2]; Test II, 0.004% in feed
  Percent mortality: 15%
  Weight gain: 87%
[2]; Test II, 0.004% in feed, <2.5 significant
  Average degree of infection: 1.7
[2]; Test II, 0.005% in feed
  Percent mortality: 5%
  Weight gain: 94%
[2]; Test II, 0.005% in feed, <2.5 significant
  Average degree of infection: 0.8
[2]; Test II, 0.006% in feed
  Percent mortality: 0%
  Weight gain: 95%
[2]; Test II, 0.006% in feed, <2.5 significant
  Average degree of infection: 0.1
[2]; Test III, 0.003% in feed, <2.5 significant
  Average degree of infection: 1.7
[2]; Test III, 0.003% in feed
  Weight gain: 79%
[2]; Test III, 0.004% in feed, <2.5 significant
  Average degree of infection: 1.1
[2]; Test III, 0.004% in feed
  Weight gain: 81%
[2]; Test III, 0.005% in feed, <2.5 significant
  Average degree of infection: 0.5
[2]; Test III, 0.005% in feed
  Weight gain: 98%
[2]; Test III, 0.006% in feed, <2.5 significant
  Average degree of infection: 0.2
[2]; Test III, 0.006% in feed
  Weight gain: 97%
[2]; at the preferred dosages illustrated
  Effectiveness in treatment of coccidiosis: effective
[2]; used as a coccidiostat
  Effect on conversion of feed to weight gain: does not substantially adversely affect
[19]; 0.00312% in feed
  Percent mortality: 0%
  Average degree of infection: 0.9
  Weight gain: 105%
[19]; 0.00625% in feed
  Percent mortality: 0%
  Average degree of infection: 0.0
  Weight gain: 108%
[19]; chickens
  Efficiency of conversion of feed to weight gain: greater than expected
[19]; in vivo
  Effectiveness in treating multiple coccidiosis infections: effective
[20]; amounts greater than 0.0125% of feed
  Effectiveness against coccidiosis: effective against coccidiosis, do not generally show improved results over 0.0125%
[20]; amounts greater than 0.0125% of feed, in some cases
  Effect on growth, feed efficiency and mortality: may adversely affect the growth, feed efficiency and mortality
[20]; amounts lower than 0.001% and in some cases lower than 0.003% of feed
  Effectiveness against coccidiosis: not effective
[20]; at dosages necessary to control coccidiosis
  Toxicity / untoward side effects: not toxic and shows no untoward side effects
[20]; oral, as component of feed
  Weight of treated fowl compared to controls: either maintain their weight or actually gain weight
[20]; oral, as component of feed, turkeys and chickens
  Control of coccidiosis: effectively controls the disease
